# Results from patent US8426568B2 (University of Virginia Patent Foundation, priority 2006, dated 2013).
# pEC50, pIC50: −log10 of the molar value. Read-outs that look alike come from different tables or passages of the source.
# How the values were obtained:
# [1] = biological target: recombinant, constitutively active RSK2 (Homo sapiens, UniProt P51812); assay: in vitro RSK kinase assay; format: biochemical; conditions: 10 μM ATP, 30 min, read-out: IC50 for inhibition of RSK catalytic activity in vitro
# Sequence of recombinant, constitutively active RSK2 (P51812 1-397 limits assumed): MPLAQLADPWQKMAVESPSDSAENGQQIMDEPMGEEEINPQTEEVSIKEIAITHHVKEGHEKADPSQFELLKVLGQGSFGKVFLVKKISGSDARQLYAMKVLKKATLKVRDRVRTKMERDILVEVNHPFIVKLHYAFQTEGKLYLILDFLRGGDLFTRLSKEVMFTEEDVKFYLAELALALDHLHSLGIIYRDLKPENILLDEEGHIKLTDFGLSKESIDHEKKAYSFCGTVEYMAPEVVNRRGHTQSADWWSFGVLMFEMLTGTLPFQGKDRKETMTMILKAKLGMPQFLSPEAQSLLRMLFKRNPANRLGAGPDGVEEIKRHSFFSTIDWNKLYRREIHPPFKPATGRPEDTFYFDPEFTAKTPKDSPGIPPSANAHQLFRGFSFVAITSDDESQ
# [2] = tested on: MCF-7 cells; assay: MCF-7 cell proliferation (CellTiter-Glo); format: cell-based, human; conditions: for inhibition of MCF-7 cell proliferation at 50 μM: 72 h
# Procedure: (2A) The potency of purified compounds in inhibiting RSK catalytic activity in vitro was measured. Kinase assays were performed using immobilized substrate. The reactions were initiated by the addition of 10 μM ATP (final concentration). Reactions were terminated after 30 min. All assays measured the initial reaction velocity. The extent of phosphorylation was determined using phosphospecific antibodies in combination with HRP-conjugated secondary antibodies. HRP activity was measured as described in the Experimental. Maximum and minimum activity is the relative luminescence detected in the presence of vehicle and 200 mM EDTA, respectively. Points, mean (n=2 in triplicate); bars=SD. (2B) The potency of purified compounds as inhibitors of MCF-7 cell proliferation was determined. […] Values given are the fold proliferation. Points, mean (n=3 in quadruplicate); bars=SD.
# (§1) The cell number was measured after 48 h of treatment. Values given are the fold proliferation as a percentage of that observed with vehicle-treated cells. Points, mean (n=2 in quadruplicate); bars=SD.
# (§2) For proliferation studies cells were seeded at 5000 cells per well in 96 well tissue culture plates in the appropriate medium as described by American Type Culture Collection. After 24 hours, the medium was replaced with medium containing compound or vehicle as indicated. Cell viability was measured at indicated time points using CellTiter-Glo™ assay reagent (Promega, Madison, Wis.) according to manufacturer's protocol. Maximum responses and the concentrations of half the effective response (EC50) were determined by performing a best-fit analysis of the data (GraphPad Prism). For specificity studies, cells were seeded at 3×10^5 cells/well in 6 well plates. After 24 hours, the cells were serum-starved for 24 hours then incubated with compound or vehicle for 4 hours prior to a 20 minute treatment with PDB. Cells were lysed with boiling SDS-sample buffer without dithiothreitol (DTT). The lysates were normalized for total protein, and DTT was added to an aliquot, which was electrophoresed and immunoblotted. Antibodies used on cell lysates included anti-pan-MAPK (anti-ERK1/2) (610124) from BD Transduction Laboratories; anti-phospho-MAPK (V8031) from Promega; anti-eEF2 (2332), anti-phospho-eEF2 (2331), anti-phospho-Akt Substrate (9611), anti-phospho-PKA Substrate (9621), and anti-phospho-PKC Substrate (2261) from Cell Signaling Technology. Anti-Ran was a generous gift from Ian Macara (University of Virginia).
# [3] = tested on: PKA, PKC and AKT; assay: phosphorylation patterns in MCF-7 cells with phospho-PKA, -PKC, -AKT substrate antibodies (specificity); format: cell-based, human; conditions: pre-incubation before PDB
# Procedure: MCF-7 cell lysates normalized for protein concentration were electrophoresed, transferred and immunoblotted with anti-phospho-PKA substrate, anti-phospho-PKC substrate or anti-phospho-AKT substrate.
# as §2
# The lysates were immunoblotted with multiple phospho-specific substrate antibodies.
# [4] = calculated LogP (Molinspiration Property Calculation Service); conditions: relative to SL0101, from calculated LogP
# Procedure: Reagents and solvents were reagent grade and used without further purification. Methylene chloride was distilled from calcium hydride. Anhydrous grade THF was purchased from VWR. All reactions involving air or moisture sensitive reagents or intermediates were performed under a nitrogen or argon atmosphere. Flash chromatography was performed using Silicycle 40-60 mesh silica gel. Analytical TLC was performed using 0.25 mm EM silica gel 60 […] plates that were visualized by irradiation (254 nm) or by staining with Hanessian's stain (cerium molybdate). Optical rotations were obtained using a Jasco digital polarimeter. ^1H and ^13C NMR spectra were obtained using 300 MHz and 500 MHz Varian instruments. Chemical shifts are reported in parts per million (ppm δ) referenced to the residual ^1H resonance of the solvent (CDCl3, 7.26 ppm; DMSO-d6, 2.49 ppm). ^13C spectra were referenced to the residual ^13C resonance of the solvent (CDCl3, 77.3 ppm; DMSO-d6, 39.5 ppm). Splitting patterns are designated as follows: s, singlet; br, broad; d, doublet; dd, doublet of doublets; t, triplet; q, quartet; m, multiplet. High resolution mass spectra were obtained at the Michigan State University-NIH Mass Spectrometry Facility. LogP values were calculated using Molinspiration Property Calculation Service (see their website).
# [5] = tested on: MCF-10A cells; assay: MCF-10A cell proliferation (CellTiter-Glo); format: cell-based, human; conditions: 48 h treatment
# Procedure: as §1
# as §2, with “Antibodies used on cell lysates included anti-pan-MAPK (anti-ERK1/2) (610124) from BD Transduction Laboratories; anti-phospho-MAPK (V8031) from Promega; anti-eEF2 (2332), anti-phospho-eEF2 (2331), anti-phospho-Akt Substrate (9611), anti-phospho-PKA Substrate (9621), and anti-phospho-PKC Substrate (2261) from Cell Signaling Technology. Anti-Ran was a generous gift from Ian Macara (University of Virginia).” left out
# [6] = tested on: MAPK; assay: PDB-stimulated MAPK activation in MCF-7 cells (anti-active MAPK immunoblot); format: cell-based, human; conditions: serum-deprived MCF-7; 4 h pre-incubation; 500 nM PDB 20 min
# Procedure: (3A) The potency of the synthesized compounds in inhibiting RSK catalytic activity in vitro was measured as described in FIG. 2A and is graphically illustrated. (3B) Represents an images of immunoblots where serum-deprived MCF-7 cells were pre-incubated with vehicle, or the indicated concentration of inhibitor for 4 h. Cells were treated with 500 nM PDB or vehicle for 20 min prior to lysis. Protein concentration of lysates was measured and lysates were electrophoresed, transferred and immunoblotted.
# For proliferation studies cells were seeded at 5000 cells per well in 96 well tissue culture plates in the appropriate medium as described by American Type Culture Collection. After 24 hours, the medium was replaced with medium containing compound or vehicle as indicated. Cell viability was measured at indicated time points using CellTiter-Glo™ assay reagent (Promega, Madison, Wis.) according to manufacturer's protocol. Maximum responses and the concentrations of half the effective response (EC50) were determined by performing a best-fit analysis of the data (GraphPad Prism). For specificity studies, cells were seeded at 3×10^5 cells/well in 6 well plates. After 24 hours, the cells were serum-starved for 24 hours then incubated with compound or vehicle for 4 hours prior to a 20 minute treatment with PDB. Cells were lysed with boiling SDS-sample buffer without dithiothreitol (DTT). […]
# [7] = maximum solubility in tissue culture media; format: physicochemical; conditions: aqueous buffer
# [8] = tested on: MCF-10A cells; conditions: background; cited from earlier work
# [9] = tested on: MCF-7 cells; conditions: cited from earlier work
# [10] = tested on: RSK; assay: eEF2 phosphorylation in PDB-stimulated MCF-7 cells (RSK activity in intact cells); format: cell-based, human; conditions: serum-deprived MCF-7; 4 h pre-incubation; 500 nM PDB 20 min
# Source text: Therefore, the phosphorylation state of eEF2 during mitogenic stimulation is an indicator of RSK activity.
# [11] = compounds purified from F. refracta
"pIC50 [1, 11]",SMILES,inhibition of MCF-7 cell proliferation at 50 μM [2],"effect on phosphorylation patterns (phospho-PKA, -PKC, -AKT substrate antibodies) [3]",specificity for RSK in intact cells [3],"effect on PDB-induced MAPK activation / upstream kinases (MEK, Raf, PKC) [6]",effect on eEF2 phosphorylation after PDB [10],other results
~6.59,"CC(=O)OC1C(C)OC(Oc2c(-c3ccc(O)cc3)oc3cc(O)cc(O)c3c2=O)C(OC(C)=O)C1O [2″,4″-di-O-acetyl-SL0101, kaempferol 3-O-(2″,4″-di-O-acetyl-α-L-rhamnopyranoside)]",similarly effective at inhibiting MCF-7 cell growth,,,,,
~6.85,"CC(=O)OC1C(C)OC(Oc2c(-c3ccc(O)cc3)oc3cc(O)cc(O)c3c2=O)C(O)C1O [4″-mono-O-acetyl-SL0101, kaempferol 3-O-(4″-mono-O-acetyl-α-L-rhamnopyranoside)]",did not inhibit MCF-7 cell proliferation,,,,,
,"CCCC(=O)O[C@@H]1[C@@H](OC(=O)CCC)[C@@H](O)[C@H](Oc2c(-c3ccc(O)cc3)oc3cc(O)cc(O)c3c2=O)O[C@H]1C [Bu-SL0101, kaempferol 3-O-(3″,4″-di-O-butyryl-α-L-rhamnopyranoside)]",,decreased the PDB-induced phosphorylation of a ˜25 kDa protein,not specific for inhibition of RSK activity,do not inhibit upstream kinases necessary for PDB-induced MAPK activation,,"pIC50 ([1]; synthesized compounds): 6.67; pEC50 ([2]; Homo sapiens, MCF7, 48 h treatment, read-out: EC50 for inhibition of MCF-7 proliferation): 4.40; increase in hydrophobicity [4]: > 50 fold; concentration at which significant inhibition of MCF-10A proliferation began [5]: 100 µM; solubility [7]: ~100 µM"
,"CC(=O)OC1C(C)OC(Oc2c(-c3ccc(O)cc3)oc3cc(O)cc(O)c3c2=O)C(O)C1OC(C)=O [SL0101, kaempferol 3-O-(3″,4″-di-O-acetyl-α-L-rhamnopyranoside), reference compound]",similarly effective at inhibiting MCF-7 cell growth,similar,demonstrates specificity for RSK in intact cells,do not inhibit upstream kinases necessary for PDB-induced MAPK activation,eliminated PDB-mediated inactivation of eEF2K,"growth of the normal human breast line MCF-10A [8]: does not prevent the growth; proliferation of the human breast cancer cell line MCF-7 ([9]; background): inhibits proliferation; pEC50 ([9]; previously reported (ref 4), current results in agreement, read-out: EC50 for inhibition of MCF-7 cell proliferation): ~4.30"
,"N#CC(=C(/N)Sc1ccccc1N)/C(C#N)=C(\N)Sc1ccccc1N [U0126, reference compound]",,PDB-induced phosphorylation is inhibited,,,levels of eEF2 phosphorylation also remained increased,
